# According to article PMC6651024, “LIR Motif-Containing Hyperdisulfide β-Ginkgotide is Cytoprotective, Adaptogenic, and Scaffold-Ready” (Molecules, 2019):
# Where two headings read alike, the source gives them in different places. Where a SMILES comes first, the peptide text is derived from it.
# Assays:
# H9c2 cells [1] = assay: LDH release cytotoxicity assay, H9c2; format: cell-based, rat; settings: H9c2, 10 µM peptide, 48 h, 37 °C; LDH kit, 450 nm; triplicates
# From the text: In addition, β-gB1 is non-toxic to Vero and BHK (baby hamster kidney) cell lines based on an MTT assay. […] LDH is a cytoplasmic enzyme which is rapidly released into the cell culture medium upon plasma membrane damage and is widely used as a marker for cytotoxicity. Thus, an LDH-release assay measures the level of plasma membrane damage to a cell population.
# (§1) Rat cardio-myoblast cells (H9c2) and […] neuron-like SH-SY5Y cells were purchased from ATCC and maintained in DMEM (Dulbecco’s modified eagle medium) medium supplemented with 10% fetal bovine serum (FBS), 10,000 U/mL of penicillin, and 10,000 µg/mL of streptomycin at 37 °C, 5% CO2.
# An LDH release assay was performed using the CytoSelect™ LDH cytotoxicity assay kit (CBA-241, Cell Biolabs, Inc., San Diego, CA, USA). In brief, cells were cultured in DMEM with or without 10 µM of β-gB1 and S-alkylated β-gB1 (β-gB1Alk) for 48 h at 37 °C and 5% CO2. PBS was used for the vehicle control experiment. The culture medium was transferred and mixed with the LDH assay reagent in a ratio of 9:1. The reaction mixture was incubated at 37 °C for 2 h, and colorimetric quantification was performed using a 450 nm wavelength. The assay was performed in experimental triplicates, and statistical calculations and bar graphs were done using GraphPad Prism software (Version 6.01). […]
# Candida tropicalis = settings: concentrations up to 100 µM; cited from earlier work
# H9c2 cells [2] = format: cell-based, rat; settings: 48 h hypoxia, MTT
# Description: (§2) Autophagy is an integrated stress response that clears the subcellular damages. Previous studies have shown that such damages can be induced by hypoxia and hypoxia-reoxygenation stress. Clearing subcellular damages would increase survivability. In traditional medicine, G. biloba is used as an herbal remedy for acute ischemic stroke and post-stroke recovery. To examine the effects of β-gB1 in hypoxia stress, we used cardio-myoblast H9c2 and SH-SY5Y cells. Cells were cultured with or without β-gB1 and incubated in a hypoxic environment for 48 h before the assessment of cell survival by the MTT assay. […] Importantly, when the concentration of β-gB1 was reduced tenfold from 10 to 1 µM, a 22–24% increase of survivability was still observed in H9c2 and SH-SY5Y cells (Figure 3A–D). […]
# (§3) Cells were cultured in DMEM with or without β-gB1/S-alkylated β-gB1 (β-gB1Alk) for 48 h under normoxia, hypoxia, and hypoxia-reoxygenation conditions. […] The culture medium was then aspirated, and purple formazan crystals were dissolved in DMSO for colorimetric quantification at 570 nm using a microplate reader with a reference wavelength of 630 nm. […]
# caspase-9 = assay: Western blot of caspase-9 in SH-SY5Y cells; format: cell-based, human; settings: triplicates
# Description: In contrast, the β-gB1-treated cells increased the expression of the LC3B-II isoform by 2.8-fold. […] In addition, the β-gB1-treated cells increased the BECN1 expression by 1.5-fold (Figure 2A,B).
# as §1
# A 25 µg equivalent quantity of each protein samples were resolved on a 10% and 15% SDS-PAGE gel accordingly and transferred onto a nitrocellulose membrane. Immunoblotting was performed using anti-protein antibodies against glyceraldehyde 3-phosphate dehydrogenase (GAPDH) (1:5000), LC3B (1:1500), Beclin-1 (1:1500), Caspase-3 (1:1500), and Caspase-9 (1:1500). Blots were developed with Clarity Max Western ECL blotting substrates. Protein bands were quantitated densitometrically using ImageJ software (ImageJ15.0b, Wayen Rasband, NIH, Bethesda, Maryland, USA), expressed relative to GAPDH, and normalized to the vehicle control cells. Statistical calculations and bar graphs were done using GraphPad Prism software (Version 6.01), and three individual experimental data sets were used for the calculation. Data are presented as means ± SD and compared by the Holm–Sidak multiple t-tests method. […]
# Beclin-1 (BECN1) = assay: Western blot of autophagy marker Beclin-1 in SH-SY5Y cells; format: cell-based, human; settings: western blot densitometry relative to GAPDH, normalized to vehicle control, mean, triplicates
# Description: The LIR-containing proteins regulate autophagosome formation by interacting with the protein Atg8 (autophagy-related gene, Atg) family through their LIR sequences. […] The SH-SY5Y cells were cultured with or without β-gB1. The autophagy markers, Beclin-1 (BECN1), LC3B-I, and LC3B-II, were identified and quantified by western blot analysis. Beclin-1 plays an important role in regulating both autophagy and cell death, whereas LC3B is an important component of the autophagy pathway and the most widely used marker for autophagosomes. Two of the processed LC3B protein are LC3B-I and LC3B-II. LC3B-I is a truncated LC3B. In contrast, LC3B-II is a truncated and lipidated version of LC3B-I [28, 29]. Importantly, LC3B-II is centrally involved in the events of autophagosome membrane expansion and fusion. […]
# A 25 µg equivalent quantity of each protein samples were resolved on a 10% and 15% SDS-PAGE gel accordingly and transferred onto a nitrocellulose membrane. […] Protein bands were quantitated densitometrically using ImageJ software (ImageJ15.0b, Wayen Rasband, NIH, Bethesda, Maryland, USA), expressed relative to GAPDH, and normalized to the vehicle control cells. […]
# SH-SY5Y cells = format: cell-based, mouse; settings: 48 h hypoxia, MTT
# Description: as §2, §3
# LC3B = assay: Western blot of autophagy marker LC3B (LC3B-I, LC3B-II) in SH-SY5Y cells; format: cell-based, human; settings: triplicates
# Description: The LIR-containing proteins regulate autophagosome formation by interacting with the protein Atg8 (autophagy-related gene, Atg) family through their LIR sequences. […] The SH-SY5Y cells were cultured with or without β-gB1. The autophagy markers, Beclin-1 (BECN1), LC3B-I, and LC3B-II, were identified and quantified by western blot analysis. Beclin-1 plays an important role in regulating both autophagy and cell death, whereas LC3B is an important component of the autophagy pathway and the most widely used marker for autophagosomes. Two of the processed LC3B protein are LC3B-I and LC3B-II. LC3B-I is a truncated LC3B. In contrast, LC3B-II is a truncated and lipidated version of LC3B-I [28, 29]. Importantly, LC3B-II is centrally involved in the events of autophagosome membrane expansion and fusion.
# as §1
# A 25 µg equivalent quantity of each protein samples were resolved on a 10% and 15% SDS-PAGE gel accordingly and transferred onto a nitrocellulose membrane. Immunoblotting was performed using anti-protein antibodies against glyceraldehyde 3-phosphate dehydrogenase (GAPDH) (1:5000), LC3B (1:1500), Beclin-1 (1:1500), Caspase-3 (1:1500), and Caspase-9 (1:1500). Blots were developed with Clarity Max Western ECL blotting substrates. Protein bands were quantitated densitometrically using ImageJ software (ImageJ15.0b, Wayen Rasband, NIH, Bethesda, Maryland, USA), expressed relative to GAPDH, and normalized to the vehicle control cells. Statistical calculations and bar graphs were done using GraphPad Prism software (Version 6.01), and three individual experimental data sets were used for the calculation. Data are presented as means ± SD and compared by the Holm–Sidak multiple t-tests method. P-values pf less than 0.05 were considered significant.
# H9c2 cells [3] = assay: Hypoxia-reoxygenation injury, MTT assay, H9c2; format: cell-based, rat; settings: H9c2, 1 µM peptide, 24 h hypoxia then 24 h normoxia, triplicates
# Description: Cells were cultured with or without β-gB1 and its S-alkylated β-gB1, first under the hypoxic condition for 24 h and then at a normal oxygen environment for another 24 h. The cell viability under hypoxia-reoxygenation condition was assessed by the MTT assay.
# as §1
# Cells were seeded in a cell culture medium with/without β-gB1 and incubated at 37 °C, 5% CO2 overnight. The next day, the cells were locked inside a BD GasPak EZ anaerobe pouch system (BD Diagnostics, MD) and incubated at 37 °C for the next 48 h for the hypoxia condition. In addition, the cells were cultured under a normal oxygenated environment for the normoxic control. In hypoxia-reoxygenation experiments, the cells were incubated for 24 h in hypoxic conditions before being incubated for another 24 h under normoxia.
# Phosphate-buffered saline (PBS) was used as a vehicle control.
compound,measurement,setting,value
"CC[C@H](C)[C@@H]1NC(=O)[C@@H]2CSSC[C@H](NC(=O)CNC(=O)[C@@H](NC(=O)[C@H](CCC(=O)O)NC(=O)[C@@H](N)Cc3ccc(O)cc3)[C@@H](C)O)C(=O)N[C@@H](CCCCN)C(=O)N[C@@H](CCCNC(=N)N)C(=O)N[C@H]3CSSC[C@@H](C(=O)O)NC(=O)[C@H](CSSC[C@H](NC3=O)C(=O)N[C@@H](Cc3ccc(O)cc3)C(=O)N[C@@H](CC(C)C)C(=O)N[C@@H](CC(=O)O)C(=O)N[C@@H](CCC(=O)O)C(=O)N[C@@H](Cc3ccc(O)cc3)C(=O)NCC(=O)N2)NC(=O)[C@H](CCCNC(=N)N)NC1=O [β-gB1] (HELM PEPTIDE1{Y.E.T.G.C.K.R.C.C.Y.L.D.E.Y.G.C.I.R.C.C}$PEPTIDE1,PEPTIDE1,5:R3-16:R3|PEPTIDE1,PEPTIDE1,8:R3-20:R3|PEPTIDE1,PEPTIDE1,9:R3-19:R3$$$V2.0; N-terminus and C-terminus assumed)",Cytotoxicity / cell-membrane damage by LDH release,H9c2 cells [1],no significant cytotoxicity or cell-membrane damaging effects
same,Antimicrobial effect,Candida tropicalis,does not exhibit an antimicrobial effect
same,Increase of cell survivability under hypoxia,"H9c2 cells [2]; H9c2, 1 µM peptide, range printed jointly for H9c2 and SH-SY5Y",22–24%
same,Increase of cell survivability under hypoxia,"H9c2 cells [2]; H9c2, 10 µM peptide, triplicates",37%
same,Expression of caspase-9 in treated cells,caspase-9,remained unchanged
same,Increase of BECN1 expression vs control,Beclin-1 (BECN1),1.5 fold
same,Increase of cell survivability under hypoxia,"SH-SY5Y cells; 1 µM peptide, range printed jointly for H9c2 and SH-SY5Y",22–24%
same,Cytoprotective effect under hypoxia (in words),"SH-SY5Y cells; 10 µM peptide, compared with 37% in H9c2",comparable cytoprotective effect
same,Increase of LC3B-II/LC3B-I ratio compared to control,LC3B; western blot band intensity,about 3 fold
same,Increase of expression of LC3B-II isoform vs control,"LC3B; western blot densitometry relative to GAPDH, normalized to vehicle control, mean",2.8 fold
same,Expression of LC3B-I isoform vs control,"LC3B; western blot densitometry relative to GAPDH, normalized to vehicle control",did not alter the expression
same,Increase of cell survivability under hypoxia-reoxygenation,H9c2 cells [3],24%
